Measurements as given in patent US20140088144A1, “INHIBITING MICROBIAL INFECTIONS” (THE UNIVERSITY OF KANSAS, priority 2012, published 2014).
pIC50: −log10 of the molar value.

What was measured:
[1] = target: T1, GB1^b-RhaR (Escherichia coli, UniProt P09378); assay: EMSA in vitro DNA binding by GB1^b-RhaR; assay type: biochemical, E. coli
T1 construct: GB1basic (N); made in house; host or cells: E. coli ArcticExpress(DE3), pET21-derived plasmid
Text: All proteins for this study were expressed in E. coli. Untagged CRP was purified by Ni^2+-affinity chromatography as described. Lad protein was purified by ammonium sulfate precipitation and phosphocellulose column chromatography as described. RhaS-GB1^201b and GB1^b-RhaR were purified by Ni^2+-affinity chromatography. Briefly, plasmids derived from pET21 and expressing RhaS-GB1^201b and GB1^b-RhaR were transformed into competent cells of strains Acella™ (MoBiTec, Gottingen, Germany) or ArcticExpress(DE3) (Agilent Technologies, Santa Clara Calif.), respectively. The cells were grown in 1 liter TY plus ampicillin and rhamnose. Gentamycin was also added for GB1^b-RhaR. The cells were grown to OD600 of 0.5, transferred to a 15° C. shaker, 0.1 mM IPTG was added, and then incubated overnight. Cells were harvested by centrifugation and then resuspended in 30 mL of cold binding buffer (20 mM Tris, 500 mM NaCl, 5 mM imidazole, pH 7.9) plus L-rhamnose. Cells were lysed by three cycles of freeze thaw [with addition of lysozyme (0.4 mg/mL), tris(2-carboxyethyl)phosphine (TCEP, 1 mM) and phenylmethylsulfonyl fluoride (PMSF, 1 mM), at −80° C.] followed by sonication, and then centrifuged to remove cell debris. The supernatant was applied using an AKTAexplorer FPLC (GE Healthcare) to a 5 mL HiTrap Chelating HP column (GE Healthcare) that had been charged with 50 mM NiSO4, and equilibrated with 15 mL H2O and then 15 mL binding buffer. After loading, the column was washed with 25 mL binding buffer, then 25 mL wash buffer (binding buffer, but with 60 mM imidazole) plus L-rhamnose. A 10 mL gradient of binding buffer with 60 mM to 250 mM imidazole from was run and then 15 mL of elution buffer (binding buffer, but with 250 mM imidazole). […]
IRD700- and DY682-labeled oligos were from Eurofins MWG Operon. […] EMSA gels were imaged using an Odyssey infrared imager (LI-COR, Lincoln, Nebr.), and quantified using the Odyssey software, version 3.0.30. […] Inhibition values were calculated and graphs were drawn as for in vivo dose-response experiments.

[2] = tested on: icsA; assay: Shigella gene expression qRT-PCR, icsA; assay type: cell-based, S. flexneri; conditions: for Average ΔΔCt / Ct / RQ (2^−ΔΔCt) / ΔΔCt^1 (normalized to gapA) / ΔΔCt^2 (normalized to rrsA): icsA, example data
Description: Real-time quantitative reverse transcription PCR (qRT-PCR) was performed to test the effects of SE-1 on the expression of the VirF regulated genes virB, icsA, icsB and ipaB. The gapA and rrsA transcripts were used as internal controls. These are constitutively expressed Shigella genes commonly used to normalize mRNA levels. S. flexneri strain SME4331, which carries a null mutation in ipgD (ipgD), was grown at 30° C. overnight in TSB with ampicillin, diluted into the same medium to an OD600 of ˜0.1, and 1 ml aliquots further grown at 30° C. (DMSO only) or at 37° C. (SE-1 at 20 or 40 μM, or DMSO only, all 0.3% DMSO). Cells were grown to an OD600 of 1.0 (˜2.5 h) and RNA was isolated using an RNeasy MiniElute Cleanup Kit (Qiagen, Germantown, Md.), with DNA contamination eliminated using a Turbo DNase Kit (Ambion, Austin, Tex.). Complementary DNA (cDNA) was synthesized by random priming using a cDNA Reverse Transcription Kit (Applied Biosystems, Foster City, Calif.). Primers were tested for PCR specificity using genomic DNA template to ensure a single amplicon of the expected size for each primer pair, and validated using 5-fold dilutions of cDNA (2000 to 0.0256 ng) to ensure a linear plot of cycle threshold (Ct) versus cDNA concentration. Validated primer sets were used to test mRNA profiles in reactions that contained 10 ng of cDNA, 10 μl of SYBR green master mix (Applied Biosystems), specific primers (0.5 μM each) and water to a final volume of 20 μl, using a Step One Plus Real-Time PCR System (Applied Biosystems). The data was analyzed using the 2^−ΔΔCt method, and also by Applied Biosystems real-time analysis software. […] In brief, ΔΔCt values [ΔΔCt=(Ct,Target−Ct,Internal Control)SE-1−(Ct,Target−Ct,Internal Control)no SE-1] were separately obtained for each sample relative to two internal controls, gapA and rrsA. The ΔΔCt values relative to the two internal controls for each sample were averaged and then used to calculate the relative expression levels (2^−ΔΔCt). As a control, we also normalized each internal control to the other internal control. Control reactions used templates generated without reverse transcriptase to ensure low genomic DNA contamination. To ensure that products were not likely to be due to primer dimer artifacts, additional control samples were performed in which reaction mixtures contained primers alone (no template).

T1 sequence (P09378 whole entry): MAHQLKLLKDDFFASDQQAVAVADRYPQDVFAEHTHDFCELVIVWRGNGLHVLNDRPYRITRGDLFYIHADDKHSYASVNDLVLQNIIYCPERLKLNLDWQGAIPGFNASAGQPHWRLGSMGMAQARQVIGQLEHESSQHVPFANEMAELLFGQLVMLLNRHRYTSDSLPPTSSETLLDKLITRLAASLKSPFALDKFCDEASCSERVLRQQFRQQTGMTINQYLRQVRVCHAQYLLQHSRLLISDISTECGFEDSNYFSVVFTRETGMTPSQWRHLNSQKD

Compound: CCCCN1C=C(c2ccc3ccccc3n2)C(C[N+](=O)[O-])c2ccccc21 (stereo not drawn) [Compound 1, 1-butyl-4-(nitromethyl)-3-quinolin-2-yl-4H-quinoline]
- pIC50 [1]: ~3.85
- concentration for 50% inhibition of GB1^b-RhaR relative to RhaS-GB1^201b [1]: two-fold higher
- inhibition of GB1^b-RhaR binding to DNA [1]: fully inhibit
- icsA expression level ([2]; 20 μM inhibitor, 37° C.): essentially unchanged
- icsA expression level ([2]; 40 μM inhibitor, P<0.05): significantly reduced
- Average ΔΔCt ([2]; SE-1 20 μM): 0.04
- Ct ([2]; SE-1 20 μM): 27.88
- RQ (2^−ΔΔCt) ([2]; SE-1 20 μM): 0.97
- ΔΔCt^1 (normalized to gapA) ([2]; SE-1 20 μM): −0.46
- ΔΔCt^2 (normalized to rrsA) ([2]; SE-1 20 μM): 0.54
- Average ΔΔCt ([2]; SE-1 40 μM): 1.17
- Ct ([2]; SE-1 40 μM): 28.59
- RQ (2^−ΔΔCt) ([2]; SE-1 40 μM): 0.44
- ΔΔCt^1 (normalized to gapA) ([2]; SE-1 40 μM): 0.82
- ΔΔCt^2 (normalized to rrsA) ([2]; SE-1 40 μM): 1.52
